Measured values published in patent US20240277653A1, “USE OF FURANCARBOXYLIC ACIDS IN THE PREPARATION OF ADDITIVES FOR ANIMAL FEEDS” (ANIPHA TECHNOLOGIES PTY LTD, priority 2021, published 2024).

Assays:
weaned piglets = test: Effects of furancarboxylic acids on performance of weaned piglets; format: in vivo, Duroc-landrace-yorkshire swine; settings: 65-day-old pigs, basal diet comprising 2000 ppm test article, 28 days, mean
From the text: A total of 120 65-day-old Duroc-landrace-yorkshire swine with similar body weight were randomly divided into 4 groups, each with 3 replicates, half male and female, […]. The pigpen and utensils were disinfected before the test. During the period of test, pigs were kept in separate pens under the same feeding and management conditions. During the test, the test pigs were fed with food and water ad libitum, and were fed twice a day. The test groups are shown in Table 1, among which, group I was the control group, and was only fed with the basal diet; test groups II, III and IV were fed with the basal diet comprising 2000 ppm of a compound of furancarboxylic acids shown in Table 1, respectively. […] The test lasted 28 days, and the performances of the test pigs, for example, the average daily feed intake (ADFI, g/d*pig), average daily weight gain (ADG, g/d*pig) and feed conversion ratio (FCR) of each pig were counted.

[1] = test system: yellow-feathered broilers; test: Use of furancarboxylic acids in a feed for chicken (broiler performance); format: in vivo; settings: 1-day-old broilers, basal diet comprising 1000 ppm test article, 20 days, mean
From the text: This experiment adopted a single-factor randomization design. 480 1-day-old broilers with an average body weight of 50 g were selected and randomly divided into 4 groups, with 6 replicates in each group, half male and female, 20 yellow-feathered broilers per replicate. The chicken house and utensils were disinfected before the test. During the period of test, broilers were kept in cages under the same feeding and management conditions. The basal diet is mainly based on corn-soybean meal, and other antioxidants and growth promoters are not added during the whole feeding. The test groups are shown in Table 2, among which, group I was the control group, and was only fed with the basal diet; test groups II, III and IV were fed with the basal diet comprising 1000 ppm of a compound of furancarboxylic acids shown in Table 2, respectively. The test lasted 20 days, and the test broilers were fed with food and water ad libitum, and were fed twice a day. Test broilers in each replicate were weighed at 21 days of age (stop feeding for 12 hours and keep water). The feed consumption of the test broilers was counted, and the average daily feed intake (ADFI, g/d*broiler), average daily weight gain (ADG, g/d*broiler) and feed conversion ratio (FCR) of each test broiler were calculated.

grass carp fingerlings = test: Use of furancarboxylic acids in a feed for fish (grass carp growth-promoting test); format: in vivo; settings: 500 ppm in test feed, 8 weeks; for Weight gain: 100×(final−initial)/initial weight; for FCR (feed conversion rate): feed intake/weight gain
Method: Test fish: The test fish used were the healthy and lively grass carp fingerlings of the same year and were reared in a large cage (4×2×1.5 m^3) for 4 weeks before being used for formal breeding tests. The experimental system was a small floating cage (with size of 1.1×1.1×1.1 m^3); each small cage is equipped with a bubbling head, and bubbling 24 hours a day. The small cages and the temporary cages were placed in a test facility, a 3500 m^2 pond, the pond depth was about 1.5 m, and the pond water was fully aerated bottom water. During the test, 240 grass carps that had been starved for 1 day were randomly divided into 3 groups, each group was provided with 4 replicates, and 20 fish were placed in each replicate. Each replicate was weighed and placed into 12 cages, respectively fed with a test feed supplemented with a compound of furancarboxylic acids.
Test feed: The test feed was prepared according to the formula in Table 3, and 500 ppm of a compound of furancarboxylic acids were added to different test groups according to Table 4. The feedstuff used was ultrafinely grinded and then passed through the Jiangsu Muyang extruder to make a floating extruded feed with a particle size of 3 mm. The mold release temperature was 130° C., and 3% soybean oil was sprayed externally through the oil injection equipment, and sealed in a cool place for use.
Procedures: The experiment adopts artificial food restriction feeding, the feeding amount is adjusted once a week, the feeding level (based on the initial body weight) of each group is exactly the same, feeding twice a day (at 7:30 am and 15:00 pm), and the total feeding amount is 580 g per replicate. The test lasted 8 weeks. The water quality was monitored regularly during the test. The water temperature was 26.88±3.08° C., with DO>5.0 mg O L^−1, pH 7.8, ammonia nitrogen <0.50 mg N L^−1, and nitrite nitrogen <0.05 mg N L^−1 during the whole breeding process.
Parameter statistics: During the test, the fish in each cage were weighed as a whole 1 day of stopping feeding, and their weight gain (WG, %), feed conversion rate (FCR) and survival rate (SR, %) were calculated as follows:
Weight gain (WG, %)=100×(average final weight−average initial weight)/average initial weight;
Feed conversion rate (FCR)=feed intake/weight gain of fish;
Survival rate (SR, %)=100×number of fish at the end of the experiment/number of fish at the beginning of the experiment.

Structure (SMILES)	ADFI (average daily feed intake) (weaned piglets)	ADG (average daily weight gain) (weaned piglets)	FCR (feed conversion ratio) (weaned piglets)	ADFI (average daily feed intake) [1]	ADG (average daily weight gain) [1]	FCR (feed conversion ratio) [1]	Average final weight (grass carp fingerlings)	SR (survival rate) (grass carp fingerlings)	Weight gain (grass carp fingerlings)	FCR (feed conversion rate) (grass carp fingerlings)
O=C(O)c1coc(C(=O)O)c1 [2,4-Furandicarboxylic acid]	1263 g/d*pig	507 g/d*pig	2.490	36.5 g/d*broiler	17.4 g/d*broiler	2.10				
O=C(O)c1ccco1 [2-Furancarboxylic acid]	1274 g/d*pig	512 g/d*pig	2.489	35.2 g/d*broiler	16.9 g/d*broiler	2.08	586.87 g	82.50%	134.96%	1.48
O=C(O)c1ccoc1 [3-Furancarboxylic acid]	1240 g/d*pig	498 g/d*pig	2.491	34.0 g/d*broiler	16.4 g/d*broiler	2.07	589.33 g	83.75%	138.98%	1.48
